US20190359653A1, “SELECTIVE PEPTIDE INHIBITORS OF FRIZZLED” (Genentech, Inc., priority 2016, published 2019)
“Also recorded” adds a separate entry of the source.

Columns and labels:
[1] = target: T1, Wnt5a binding to FZD7 CRD (Homo sapiens, UniProt O75084); assay: ELISA of Wnt5a binding to FZD7 CRD, Fz7-21-derived peptide dimers; conditions: FIGS. 23A-23J
T1 construct: hFZD7 CRD-Fc (cat no. 6178-FZ); purchased R&D systems 6178-FZ
Protocol: 384-well Maxisorp plates (cat. no. 464718; Thermo Scientific) were incubated with 30 μL of Neutravidin (cat. no. 31000, Thermo Scientific; 2 μg/mL in PBS) overnight at 4° C. Plates were then washed with PBST and blocked with PBS/1% BSA for 1 hour at RT and then washed with PBST prior to further processing. The binding assay was conducted in 96 well plates (cat no. 83007-374; VWR) which were blocked with PBS/1% BSA overnight at 4° C. hFZD4 CRD-Fc or hFZD7 CRD-Fc (63 ng/mL) were incubated with either Bio-Wnt3a (25 ng/mL) or Bio-Wnt5a (50 ng/mL) in the presence of 4-fold serial dilutions of the indicated peptide in PBS overnight at 4° C. All assays included hFZD9 CRD-mIgG2A protein as a negative control. hFZD7 CRD-His was suspended in 150 mM NaCl, 50 mM Tris-HCl at pH 7.5 and when used in assays an equal volume of the same buffer control was used. The binding assay mixtures were transferred to the Neutravidin coated plates and incubated for ˜1 h at RT. […] The signal was developed with the addition of TMB reagent (following the manufacturer's recommendation; KPL; 50-76-00) for 15 min prior to the addition of an equal volume of 1 M phosphoric acid for 10 min Absorbance was measured at 450 nm using a Tekan M1000 plate reader. […]

[2] = target: T2, Wnt5a binding to FZD4 CRD (Homo sapiens, UniProt Q9ULV1); assay: ELISA of biotinylated Wnt5a binding to FZD CRD-Fc; conditions: peptide 0-10 μM
T2 construct: hFZD4 CRD-Fc (cat no. 5847-FZ); purchased R&D systems 5847-FZ
T2 sequence (Q9ULV1 40-161 limits assumed): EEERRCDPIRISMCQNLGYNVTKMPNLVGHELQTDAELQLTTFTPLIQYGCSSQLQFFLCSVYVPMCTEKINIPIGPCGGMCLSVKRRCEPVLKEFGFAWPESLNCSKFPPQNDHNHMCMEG
Protocol: 384-well Maxisorp plates (cat. no. 464718; Thermo Scientific) were incubated with 30 μL of Neutravidin (cat. no. 31000, Thermo Scientific; 2 μg/mL in PBS) overnight at 4° C. Plates were then washed with PBST and blocked with PBS/1% BSA for 1 hour at RT and then washed with PBST prior to further processing. The binding assay was conducted in 96 well plates (cat no. 83007-374; VWR) which were blocked with PBS/1% BSA overnight at 4° C. hFZD4 CRD-Fc or hFZD7 CRD-Fc (63 ng/mL) were incubated with either Bio-Wnt3a (25 ng/mL) or Bio-Wnt5a (50 ng/mL) in the presence of 4-fold serial dilutions of the indicated peptide in PBS overnight at 4° C. All assays included hFZD9 CRD-mIgG2A protein as a negative control. hFZD7 CRD-His was suspended in 150 mM NaCl, 50 mM Tris-HCl at pH 7.5 and when used in assays an equal volume of the same buffer control was used. The binding assay mixtures were transferred to the Neutravidin coated plates and incubated for ˜1 h at RT. The wells were then washed with PBST, incubated with anti-hIgG1-HRP (1:10,000 suspended in PBS supplemented with 1% BSA; cat. no. A18817, Invitrogen), and washed again with PBST. The signal was developed with the addition of TMB reagent (following the manufacturer's recommendation; KPL; 50-76-00) for 15 min prior to the addition of an equal volume of 1 M phosphoric acid for 10 min Absorbance was measured at 450 nm using a Tekan M1000 plate reader. Values were collected and plotted using Prism Graphpad software. All assay conditions using peptides were at 1% DMSO final concentration. […]
Briefly, the assays were performed using (a) FZD1 CRD-Fc, (b) FZD2 CRD-Fc, (c) FZD4 CRD-Fc, or (d) FZD7 CRD-Fc as the capture reagent and biotinylated-Wnt5a as the detection reagent. […] Streptavidin-HRP was used to detect biotinylated Wnt5a, and HRP activity was measured as a function of chemiluminescence detection at 428 nm. […]

[3] = test system: receptor-independent β-catenin signaling in 6-BIO-treated HEK293-TB cells; assay: epistasis study, HEK293-TB cells stimulated with 6-BIO; format: cell-based; conditions: 10 μM 6-BIO, 6 hr; FIG. 2E
[4] = test system: Wnt3a binding to FZD1 CRD, FZD2 CRD, and FZD7 CRD; assay: ELISA of biotinylated Wnt3a binding to FZD CRD-Fc; conditions: peptide 0-10 μM
Protocol: 384-well Maxisorp plates (cat. no. 464718; Thermo Scientific) were incubated with 30 μL of Neutravidin (cat. no. 31000, Thermo Scientific; 2 μg/mL in PBS) overnight at 4° C. Plates were then washed with PBST and blocked with PBS/1% BSA for 1 hour at RT and then washed with PBST prior to further processing. The binding assay was conducted in 96 well plates (cat no. 83007-374; VWR) which were blocked with PBS/1% BSA overnight at 4° C. hFZD4 CRD-Fc or hFZD7 CRD-Fc (63 ng/mL) were incubated with either Bio-Wnt3a (25 ng/mL) or Bio-Wnt5a (50 ng/mL) in the presence of 4-fold serial dilutions of the indicated peptide in PBS overnight at 4° C. All assays included hFZD9 CRD-mIgG2A protein as a negative control. hFZD7 CRD-His was suspended in 150 mM NaCl, 50 mM Tris-HCl at pH 7.5 and when used in assays an equal volume of the same buffer control was used. The binding assay mixtures were transferred to the Neutravidin coated plates and incubated for ˜1 h at RT. The wells were then washed with PBST, incubated with anti-hIgG1-HRP (1:10,000 suspended in PBS supplemented with 1% BSA; cat. no. A18817, Invitrogen), and washed again with PBST. The signal was developed with the addition of TMB reagent (following the manufacturer's recommendation; KPL; 50-76-00) for 15 min prior to the addition of an equal volume of 1 M phosphoric acid for 10 min Absorbance was measured at 450 nm using a Tekan M1000 plate reader. Values were collected and plotted using Prism Graphpad software. All assay conditions using peptides were at 1% DMSO final concentration.
Without being bound be theory, the substantial conformational change induced by dFz7-21 on hFZD7 CRD, as exemplified by the altered geometry of the lipid binding cavity, may facilitate the accommodation of two Wnt molecules simultaneously onto the hFZD7 CRD dimer (FIG. 4e-h).
Similar results were observed using Wnt3a. […] Binding of Wnt3a to FZD1 CRD, FZD2 CRD, and FZD7 CRD increased in the presence of dFz7-21 at concentrations below about 0.5 μM (FIG. 22E), with the most binding seen in the presence of 0.01 μM-0.05 μM dFz7-21. […] Fz7-21S had no effect on Binding of Wnt3a to any of the FZD CRDs tested (FIG. 22F).

[5] = test system: Wnt1-stimulated β-catenin signaling in HEK293-TB cells; assay: luciferase reporter assay, HEK293-TB cells transfected with pCDNA3.2-Wnt1; format: cell-based

Sequence	effect on recruitment of Wnt5a to FZD7 CRD [1]	effect on Wnt5a binding to FZD4 CRD [2]	inhibition of Wnt signaling in 6-BIO-treated cells [3]	effect on Wnt3a binding to FZD1, FZD2 and FZD7 CRD [4]	inhibition of Wnt1 signaling [5]
LPSDDLEFWSHVMY [Fz7-21S, negative control]	no effect	showed no effect	Neither Fz7-21 nor Fz7-21S inhibited	showed no effect	not found to inhibit
LPSDDLEFWCHVMY [dFz7-21]		did not show any effect; also recorded: no such effect			
